Reference: paper PMC5000080, “Mechanism of Histone H3K4me3 Recognition by the Plant Homeodomain of Inhibitor of Growth 3” (The Journal of Biological Chemistry, 2016)
“And” between values parts separate entries of the source, which are not always exact repeats. Identical values can stand only once. “Also recorded” adds a separate entry of the source.

Tests used:
ING3 PHD finger = target: T1, ING3 PHD finger (Homo sapiens, UniProt Q9NXR8); test: Tryptophan fluorescence titration of ING3 PHD finger with histone peptides; type: binding; settings: 25 °C, 100 mM NaPO4 pH 7.5, 150 mM NaCl, 1 mM DTT, 10 μM ING3 PHD; average of three titrations; read-out: Trp fluorescence KD
T1 construct: The ING3 PHD finger region (residues 360–409) was amplified using PCR; GST (N, cleaved yes); made in house; host or cells: Escherichia coli Rosetta 2(DE3)pLysS
Method: Tryptophan fluorescence spectra of samples in tryptophan fluorescence buffer (100 mM NaPO4, pH 7.5, 150 mM NaCl, and 1 mM DTT) were collected at 25 °C using a Cary Eclipse fluorescence spectrometer (Varian). The samples contained 10 μM ING3 PHD finger protein and progressively increasing concentrations of histone H3 and H4 peptides. The 12- and 14-mer unlabeled histone tail peptides with an amidated C terminus and specific methylation modifications (H3K4me3, H3K4me2, H3K4me1, H3 unmodified, and H4 unmodified) were synthesized by the Peptide Core Facility at the University of Colorado at Denver. After excitation at 295 nm, emission spectra were recorded between 305 and 405 nm with 0.5-nm increments and at a 1-s integration time, averaging over three scans. Each titration experiment was repeated three times, and the average KD values were calculated using quadratic Equation 1, [drawing 1] where Fi is the fluorescence change; Fs is the fluorescence change at saturation of XT (the total protein concentration); and YT is the peptide concentration.

[1] = target: T2, wild-type ING3 PHD finger (Homo sapiens, UniProt Q9NXR8); test: ITC of wild-type ING3 PHD finger with histone peptides; type: binding; settings: for Kd / ITC KD: wild-type ING3 PHD, 5 °C, 20 mM NaH2PO4 pH 7.0, 150 mM NaCl, triplicate, non-binding in duplicate
T2 construct: The ING3 PHD finger region (residues 360–409) was amplified using PCR; GST (N, cleaved yes); made in house; host or cells: Escherichia coli Rosetta 2(DE3)pLysS
Method: (§1) ITC measurements were recorded at 5 °C using a MicroCal iTC200 (GE Healthcare) as described previously ([55]). The wild-type and mutant ING3PHD proteins and histone peptide samples were prepared in a 20 mM NaH2PO4, pH 7.0, and 150 mM NaCl ITC buffer by dialysis for 24–48 h. Titration experiments were set up for optimal heat of binding reactions by using 100–200 μM ING3PHD in the sample cell, and between 1 and 5 mM histone peptide in the injection syringe. Control experiments were performed under identical conditions to determine the heat of dilution of the titrant peptides into the experimental buffer. This was subtracted from the experimental data as part of data analysis. Data were analyzed using the software ORIGIN 7.0 (OriginLab Corp.).

[2] = target: T3, 15N-labeled ING3 PHD finger (Homo sapiens, UniProt Q9NXR8); test: 1H-15N HSQC NMR chemical shift perturbation; type: binding; settings: 0.5 mM ING3 PHD, 20 mM Tris-HCl pH 6.8, 150 mM NaCl, 10 mM DTT, 25 °C; protein:peptide up to 1:2.61
T3 construct: The ING3 PHD finger region (residues 360–409) was amplified using PCR; GST (N, cleaved yes); made in house; host or cells: Escherichia coli Rosetta 2(DE3)pLysS
Method: Chemical shift perturbation experiments were conducted using 0.5 mM uniformly ^15N-labeled ING3 PHD finger in buffer containing 20 mM Tris-HCl, pH 6.8, 150 mM NaCl, 10 mM DTT, and 10% D2O. Titration mixtures of the ING3PHD protein and each of the modified histone peptides were prepared at concentration ratios of 1:0, 1:0.13, 1:0.26, 1:0.52, 1:1.3, and 1:2.61 in a volume of 35 μl. These mixtures were then transferred into 1.7-mm NMR tubes (Bruker).
Two-dimensional ^15N HSQC (heteronuclear single quantum coherence) experiments for all samples were run at 25 °C on a 600 MHz Bruker AVANCE III spectrometer equipped with a z-gradient 1.7-mm TCI probe at the National Magnetic Resonance Facility at Madison (NMRFAM) using the NMRBot software ([57]). The NMR data were collected with 1024 × 128 complex data points along the ^1H and ^15N dimensions, with acquisition times of 104 and 81 ms, respectively, using eight scans per free induction decay. Normalized chemical shift changes were calculated using Equation 2, [drawing 2] where ΔδH and ΔδN are the proton and nitrogen change in chemical shift in ppm, respectively.

ING3 PHD W31A = target: T4, ING3 PHD W31A (Homo sapiens, UniProt Q9NXR8, W385A); test: ITC of ING3 PHD mutant with H3K4me3 peptide; settings: 5 °C, pH 7.0, non-binding in duplicate
T4 construct: The ING3 PHD finger region (residues 360–409) was amplified using PCR; GST (N, cleaved yes); made in house; host or cells: Escherichia coli Rosetta 2(DE3)pLysS
Source text: (§2) The ING3 PHD finger region (residues 360–409) was amplified using PCR and cloned into the pDEST15 vector encoding an N-terminal glutathione transferase (GST) tag using the Gateway cloning technology (Invitrogen) as described previously ([55]). ING3PHD proteins with single mutations at W31A, W47A, S15A, P43A, Y8A, and D26H were generated using the QuikChange® mutagenesis procedure (Stratagene) as described previously ([56]). The DNA sequence for wild-type and mutant proteins was verified at the University of Vermont DNA facility, and the plasmids were transformed into in Escherichia coli Rosetta^TM 2(DE3)pLysS competent cells (Novagen) for protein expression.
as §1, with “This was subtracted from the experimental data as part of data analysis.” left out, “Corp.). […]” for “Corp.).”

ING3 PHD Y8A = target: T5, ING3 PHD Y8A (Homo sapiens, UniProt Q9NXR8, Y362A); test: ITC of ING3 PHD mutant with H3K4me3 peptide; type: binding; settings: 5 °C, pH 7.0, triplicate
T5 construct: The ING3 PHD finger region (residues 360–409) was amplified using PCR; GST (N, cleaved yes); made in house; host or cells: Escherichia coli Rosetta 2(DE3)pLysS
Source text: as §2
as §1, with “Corp.). All experiments where binding occurred were performed in triplicate, whereas non-binding experiments were performed in duplicate.” for “Corp.).”

ING3 PHD S15A = target: T6, ING3 PHD S15A (Homo sapiens, UniProt Q9NXR8, S369A); test: ITC of ING3 PHD mutant with H3K4me3 peptide; type: binding
T6 construct: The ING3 PHD finger region (residues 360–409) was amplified using PCR; GST (N, cleaved yes); made in house; host or cells: Escherichia coli Rosetta 2(DE3)pLysS
Source text: as §2
as §1, with “Corp.). All experiments where binding occurred were performed in triplicate, whereas non-binding experiments were performed in duplicate.” for “Corp.).”

ING3 PHD W47A = target: T7, ING3 PHD W47A (Homo sapiens, UniProt Q9NXR8, W401A); test: ITC of ING3 PHD mutant with H3K4me3 peptide; type: binding; settings: 5 °C, pH 7.0, triplicate
T7 construct: The ING3 PHD finger region (residues 360–409) was amplified using PCR; GST (N, cleaved yes); made in house; host or cells: Escherichia coli Rosetta 2(DE3)pLysS
Source text: as §2
as §1, with “Corp.). All experiments where binding occurred were performed in triplicate, whereas non-binding experiments were performed in duplicate.” for “Corp.).”

ING3 PHD P43A = target: T8, ING3 PHD P43A (Homo sapiens, UniProt Q9NXR8, P397A); test: ITC of ING3 PHD mutant with H3K4me3 peptide; type: binding
T8 construct: The ING3 PHD finger region (residues 360–409) was amplified using PCR; GST (N, cleaved yes); made in house; host or cells: Escherichia coli Rosetta 2(DE3)pLysS
Source text: as §2
as §1, with “Corp.). All experiments where binding occurred were performed in triplicate, whereas non-binding experiments were performed in duplicate.” for “Corp.).”

ING3 PHD D26H = target: T9, ING3 PHD D26H (Homo sapiens, UniProt Q9NXR8, D380H); test: ITC of ING3 PHD mutant with H3K4me3 peptide; type: binding; settings: 5 °C, pH 7.0, triplicate
T9 construct: The ING3 PHD finger region (residues 360–409) was amplified using PCR; GST (N, cleaved yes); made in house; host or cells: Escherichia coli Rosetta 2(DE3)pLysS
Source text: as §2
as §1, with “Corp.). All experiments where binding occurred were performed in triplicate, whereas non-binding experiments were performed in duplicate.” for “Corp.).”

T2 sequence (Q9NXR8 360-409): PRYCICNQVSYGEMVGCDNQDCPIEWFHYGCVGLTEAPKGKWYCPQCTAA
T3 sequence (Q9NXR8 360-409): as above
T1 sequence (Q9NXR8 360-409): as above
T6 sequence (Q9NXR8 360-409 S369A): as the sequence (Q9NXR8 360-409) above, with S10A counted along it
T4 sequence (Q9NXR8 360-409 W385A): as the sequence (Q9NXR8 360-409) above, with W26A counted along it
T8 sequence (Q9NXR8 360-409 P397A): as the sequence (Q9NXR8 360-409) above, with P38A counted along it
T7 sequence (Q9NXR8 360-409 W401A): as the sequence (Q9NXR8 360-409) above, with W42A counted along it
T9 sequence (Q9NXR8 360-409 D380H): as the sequence (Q9NXR8 360-409) above, with D21H counted along it
T5 sequence (Q9NXR8 360-409 Y362A): as the sequence (Q9NXR8 360-409) above, with Y3A counted along it

Row | Kd (ING3 PHD finger) [µM] | Kd [1] [µM] | Compound | chemical shift perturbations in 1H-15N HSQC upon addition of peptide [2] | also measured
1 | 132 ± 13.5 | 181 ± 19.2 | C[C@H](N)C(=O)N[C@@H](CCCNC(=N)N)C(=O)N[C@H](C(=O)N[C@@H](CCCCN)C(=O)N[C@@H](CCC(N)=O)C(=O)N[C@H](C(=O)N[C@@H](C)C(=O)N[C@@H](CCCNC(=N)N)C(=O)N[C@@H](CCCCN)C(=O)N[C@@H](CO)C(=O)N[C@H](C(=O)NCC(N)=O)[C@@H](C)O)[C@@H](C)O)[C@@H](C)O [H3 unmodified] | Chemical shift perturbations were induced | –
2 | 21.4 ± 3.51 | 23.2 ± 0.8 | CNCCCC[C@H](NC(=O)[C@@H](NC(=O)[C@H](CCCNC(=N)N)NC(=O)[C@H](C)N)[C@@H](C)O)C(=O)N[C@@H](CCC(N)=O)C(=O)N[C@H](C(=O)N[C@@H](C)C(=O)N[C@@H](CCCNC(=N)N)C(=O)N[C@@H](CCCCN)C(=O)N[C@@H](CO)C(=O)N[C@H](C(=O)NCC(N)=O)[C@@H](C)O)[C@@H](C)O [H3K4me1] | Chemical shift perturbations were induced | –
3 | 4.05 ± 0.53 | 2.99 ± 0.33 | C[C@H](N)C(=O)N[C@@H](CCCNC(=N)N)C(=O)N[C@H](C(=O)N[C@@H](CCCCN(C)C)C(=O)N[C@@H](CCC(N)=O)C(=O)N[C@H](C(=O)N[C@@H](C)C(=O)N[C@@H](CCCNC(=N)N)C(=O)N[C@@H](CCCCN)C(=O)N[C@@H](CO)C(=O)N[C@H](C(=O)NCC(N)=O)[C@@H](C)O)[C@@H](C)O)[C@@H](C)O [H3K4me2] | Chemical shift perturbations were induced | –
4 | 0.63 ± 0.11 | 0.93 ± 0.04 | C[C@H](N)C(=O)N[C@@H](CCCNC(=N)N)C(=O)N[C@H](C(=O)N[C@@H](CCCC[N+](C)(C)C)C(=O)N[C@@H](CCC(N)=O)C(=O)N[C@H](C(=O)N[C@@H](C)C(=O)N[C@@H](CCCNC(=N)N)C(=O)N[C@@H](CCCCN)C(=O)N[C@@H](CO)C(=O)N[C@H](C(=O)NCC(N)=O)[C@@H](C)O)[C@@H](C)O)[C@@H](C)O [H3K4me3] | Chemical shift perturbations were induced | ITC KD (ING3 PHD W31A): no recognition of this ligand; also recorded: No binding; association stronger than with the unmodified histone H3 ([1]; abstract, method not specified (Trp fluorescence and ITC)): about 200 fold; Kd (ING3 PHD Y8A): 46 ± 2.99 µM; Kd (ING3 PHD S15A; 5 °C, pH 7.0, triplicate): 1.5 ± 0.01 µM; drop in binding affinity versus WT (ING3 PHD S15A; ITC): 2–3 fold and 2 fold; Kd (ING3 PHD W47A): 48.31 ± 0.23 µM; Kd (ING3 PHD P43A; 5 °C, pH 7.0, triplicate): 2.45 ± 0.27 µM; drop in binding affinity versus WT (ING3 PHD P43A; ITC): 2–3 fold; Kd (ING3 PHD D26H): 1.93 ± 0.26 µM
5 | – | – | GKGGKGLGKGGAKR [H4 unmodified, unmodified histone H4 tail peptide residues 4–17, amidated C terminus] | No significant resonance shifts | ITC KD [1]: No binding was observed; ITC KD ([1]; listed as H4 unmodified(4–17)): No binding
